# Assay results taken from paper PMC5996347, “2-Mercapto-Quinazolinones as Inhibitors of Type II NADH Dehydrogenase and Mycobacterium tuberculosis: Structure–Activity Relationships, Mechanism of Action and Absorption, Distribution, Metabolism, and Excretion Characterization” (ACS Infectious Diseases, 2018).
# Read-outs that look alike come from different tables or passages of the source.
# Experiments:
# M. tuberculosis H37Rv = assay: microbe, parasite or virus in culture; type: cell-based; conditions: Mycobacterium tuberculosis
# in vitro = in vitro ADME; conditions: PAMPA, pH 7.4
# Protocol: The permeability was performed using a 96-well precoated BD Gentest PAMPA plate (BD Biosciences, U.K.). Each well was divided into two chambers: donor and acceptor, separated by a lipid-oil-lipid trilayer constructed in a porous filter. The effective permeability, Pe, of the compound was measured at pH 7.4. Stock solutions (5 mM) of the compound were prepared in DMSO. The compound was then further diluted to 10 μM in phosphate buffered saline at pH 7.4. […] The compound dissolved in phosphate buffered saline was then added to the donor side of the membrane, and phosphate buffered saline without compound was added to the acceptor side. The PAMPA plate was left at room temperature for 5 h; after which time, an aliquot (100 μL) was then removed from both acceptor and donor compartments and mixed with acetonitrile (80 μL) containing an internal standard: donepezil at 50 ng/mL). The samples were centrifuged (10 min, 5 °C, 3270g) to sediment precipitated protein and sealed prior to UPLC-MS/MS analysis using a Quattro Premier XE (Waters Corp, USA). Pe was calculated as shown in the below equation. [drawing 2] where CA(t) = peak area of compound present in acceptor well at time (t) = 18 000 s; Cequi = [CD(t) × VD + CA(t) × VA]/(VD + VA); A = filter area; VD = donor well volume; VA = acceptor well volume; t = incubation time; CD(t) = peak area of compound present in donor well at time (t) = 18 000 s. Recovery of compound from donor and acceptor wells was calculated, and data was only accepted when recovery exceeded 70%.
# wild-type MTb H37Rv = assay: CFU after 7 days of treatment, wild-type; type: cell-based, Mycobacterium tuberculosis; conditions: treatment at MIC concentrations
# Protocol: Figure 4 Mtb lacking the alternative type II NADH dehydrogenase encoded by ndhA was more susceptible to compound 1. Colony-forming units (CFU) after 7 days of treatment as compared to CFU at start of drug treatment (inoculum). Unpaired t test comparison between WT and ΔndhA at 0.5 μM compound 1: two-tailed P-value = 0.0023.
smiles,measurement,setting,value
"O=C(CSc1nc2ccccc2c(=O)[nH]1)NC1CCCCC1 [Compound 1, N-Cyclohexyl-2-((4-oxo-3,4-dihydroquinazolin-2-yl)thio)acetamide]",MIC,M. tuberculosis H37Rv; read-out: 7H9-ADC MIC,0.6 µM
same,MIC,M. tuberculosis H37Rv; read-out: 7H9-ADC MIC in ng/mL,190 ng/mL
same,"Papp at 5 h, 10 μM",in vitro,8.3 ×10⁻⁶ cm/s
same,Growth of wild-type MTb H37Rv over 7 days,wild-type MTb H37Rv,could not fully suppress growth
